Assay results from BigSolDB 2.1.

For `CN1C(C(=O)Nc2ccccn2)=C(O)c2ccccc2S1(=O)=O`, the solubility (mole fraction) (in ethanol, 293.2 K) was 0.000103, the solubility (mole fraction) (in ethanol, 298.2 K) was 0.000177 and the solubility (mole fraction) (in ethanol, 303.2 K) was 0.000334. It also gave a solubility (mole fraction) (in ethanol, 308.2 K) of 0.000553, a solubility (mole fraction) (in ethanol, 313.2 K) of 0.00078 and a solubility (mole fraction) (in ethyl acetate, 293.2 K) of 0.00426. The solubility (mole fraction) (in ethyl acetate, 298.2 K) was 0.00497, the solubility (mole fraction) (in ethyl acetate, 303.2 K) was 0.0057 and the solubility (mole fraction) (in ethyl acetate, 308.2 K) was 0.00661. It also gave a solubility (mole fraction) (in ethyl acetate, 313.2 K) of 0.00741.
